Measured values published in ChEMBL document CHEMBL1914288, “Design and synthesis of biotinylated DHMEQ for direct identification of its target NF-κB components” (Bioorg Med Chem Lett, 2011).
One block for each compound: values may come before it. Activity calls are given as the source filed them. No cut-off for these calls is given here.

Tests used:
[1] = Stability of the compound under neutral conditions; type: physicochemical
RAW264.7 [2] = assay: Cytotoxicity against mouse RAW264.7 cells at 10 ug/mL after 24 hrs by MTT assay; type: cell-based; settings: raw264.7, 24 h
RAW264.7 [3] = assay: Inhibition of LPS-induced nitric oxide production in mouse RAW264.7 cells preincubated for 1 hr prior LPS stimulation measured after 24 hrs by Griess reaction; type: functional, cell-based
RAW264.7 [4] = assay: Inhibition of NF-kappaB activation in LPS-stimulated mouse RAW264.7 cells assessed as DNA binding using 32P-labeled oligonucleotide with the high affinity site 5'-AGTTGAGGGGACTTTCCCAGGC-3' at 3 ug/mL after 30 mins by EMSA; type: cell-based
[5] = target: Transcription factor p65 (Homo sapiens) (UniProt Q04206); assay: Binding affinity to recombinant NF-kappaB transcription factor p65 subunit at 4 equiv mol concentration after 1 hr by MALDI-TOF MS analysis
[6] = system: Transcription factor p65 (Homo sapiens), Q04206 [C38S]; assay: Binding affinity to recombinant NF-kappaB transcription factor p65 subunit C38S mutant at 4 equiv mol concentration after 1 hr by MALDI-TOF MS analysis
RAW264.7 [7] = assay: Inhibition of LPS-induced nitric oxide production in mouse RAW264.7 cells at 100 ug/mL preincubated for 1 hr prior LPS stimulation measured after 24 hrs by Griess reaction relative to (-)-DHMEQ; type: functional, cell-based
[8] = Stability of the compound in DMSO for 4 weeks; type: physicochemical; settings: 672 h

Sequence of Transcription factor p65 (Homo sapiens), Q04206 [C38S] (Q04206 whole entry C38S): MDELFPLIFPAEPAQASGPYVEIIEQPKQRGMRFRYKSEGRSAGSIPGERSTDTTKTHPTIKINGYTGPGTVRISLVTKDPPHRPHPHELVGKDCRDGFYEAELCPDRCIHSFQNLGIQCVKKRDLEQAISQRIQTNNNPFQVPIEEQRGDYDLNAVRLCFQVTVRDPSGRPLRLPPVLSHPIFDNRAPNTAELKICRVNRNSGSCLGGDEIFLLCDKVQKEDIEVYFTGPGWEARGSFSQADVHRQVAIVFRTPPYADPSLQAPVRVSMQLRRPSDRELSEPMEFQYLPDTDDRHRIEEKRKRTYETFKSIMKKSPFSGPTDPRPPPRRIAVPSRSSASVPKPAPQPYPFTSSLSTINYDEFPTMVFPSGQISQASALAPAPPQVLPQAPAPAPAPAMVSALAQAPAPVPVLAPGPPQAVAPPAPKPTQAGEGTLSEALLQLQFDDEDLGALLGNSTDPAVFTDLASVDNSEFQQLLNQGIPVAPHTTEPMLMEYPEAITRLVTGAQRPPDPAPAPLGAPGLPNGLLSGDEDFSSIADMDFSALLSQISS
Sequence of Transcription factor p65 (Homo sapiens) (Q04206 whole entry): as the sequence (Q04206 whole entry C38S) above, with S38C counted along it

Stability [1]: Stable
Structure (SMILES): O=C(NC1=CC(=O)[C@H]2O[C@H]2[C@H]1O)c1ccccc1O [DEHYDROXYMETHYLEPOXYQUINOMICIN]

Structure (SMILES): C=CCOc1ccccc1C(=O)NC1=CC(=O)[C@H]2O[C@H]2[C@H]1O (racemic)
Activity (RAW264.7 [2]): Non-toxic | inhibition (RAW264.7 [3]): Dose-dependent effect | inhibition (RAW264.7 [4]): Active

Activity [5]: Active | Activity [6]: inactive | Stability [8]: Stable
Structure (SMILES): O=C(/C=C/COc1ccccc1C(=O)NC1=CC(=O)[C@H]2O[C@H]2[C@H]1O)NCCOCCOCCNC(=O)CCCC[C@@H]1SC[C@@H]2NC(=O)N[C@@H]21 (mixture of isomers)
inhibition (RAW264.7 [7]): inactive
